Source: PMC6197744, “Triazolo[4,5-d]pyrimidines as Validated General Control Nonderepressible 2 (GCN2) Protein Kinase Inhibitors Reduce Growth of Leukemia Cells” (Computational and Structural Biotechnology Journal, 2018)

Tests used:
Assay in all cases: NCI-60 one-dose screen
Assay type in all cases: cell-based
NCI-H322M = details: Homo sapiens, Non-Small Cell Lung NCI-H322M, 48 h, read-out: Percent growth inhibition
Protocol: (§1) Compounds 1 and 2 were submitted to the National Cancer Institute NCI-60 Tumor Cell Screening Program (NCI number 800,700 and 800,701, respectively) for evaluation against the 60 cell line NCI panel at a single dose of 10 μM. […] Leukemia and breast cancer cell lines comprised the only cancer groups that were uniformly sensitive to both 1 and 2, with the greatest sensitivity seen in the leukemia SR cell line.
(§2) Compounds 1 and 2 were submitted to the NCI for growth inhibition screening against its panel of 60 cancer cell lines. The NCI screening protocol has extensively been described [[53], [54], [55], [56]]. Briefly, cancerous cell lines were grown in RPMI 1640 medium containing 5% fetal bovine serum and 2 mM L-glutamine. Depending on the doubling time of each cell line, 5000–40,000 cells were seeded in 96-well plates for 24 h. Cells were then treated with compounds 1 or 2 at a concentration of 10 μM and incubated for 48 h at 37 °C in a humidified atmosphere containing 5% CO2. The cells were then fixed and stained with sulforhodamine B (SRB) to determine their viability. The data were analyzed using a program called COMPARE to determine the percent growth inhibition of each compound.

K-562 = details: Homo sapiens, K562; Leukemia K-562, 10 μM, 48 h; read-out: Percent growth inhibition
Protocol: as §1, §2

OVCAR-4 = details: Homo sapiens; Ovarian OVCAR-4, 10 μM, 48 h; read-out: Percent growth inhibition
Protocol: as §1, §2

UACC-257 = details: Homo sapiens; Melanoma UACC-257, 10 μM, 48 h; read-out: Percent growth inhibition
Protocol: as §1, §2

HCC-2998 = details: Homo sapiens; Colon HCC-2998, 10 μM, 48 h; read-out: Percent growth inhibition
Protocol: as §1, §2

CAKI-1 = details: Homo sapiens; Renal CAKI-1, 10 μM, 48 h; read-out: Percent growth inhibition
Protocol: as §1, §2

A549 = details: Homo sapiens; Non-Small Cell Lung A549, 10 μM, 48 h; read-out: Percent growth inhibition
Protocol: as §1, §2

HCT-116 = details: Homo sapiens, HCT-116, 48 h, Colon HCT-116, 10 μM, read-out: Percent growth inhibition
Protocol: as §1, §2

NCI-H460 = details: Homo sapiens; Non-Small Cell Lung NCI-H460, 10 μM, 48 h; read-out: Percent growth inhibition
Protocol: as §1, §2

BT-549 = details: Homo sapiens; Breast BT-549, 10 μM, 48 h; read-out: Percent growth inhibition
Protocol: as §1, §2

ACHN = details: Homo sapiens, Renal ACHN, 48 h, read-out: Percent growth inhibition
Protocol: as §1, §2

RPMI-8226 = details: Homo sapiens; Leukemia RPMI-8226, 10 μM, 48 h; read-out: Percent growth inhibition
Protocol: as §1, §2

NCI-H522 = details: Homo sapiens; Non-Small Cell Lung NCI-H522, 10 μM, 48 h; read-out: Percent growth inhibition
Protocol: as §1, §2

TK-10 = details: Homo sapiens; Renal TK-10, 10 μM, 48 h; read-out: Percent growth inhibition
Protocol: as §1, §2

SF-268 = details: Homo sapiens; CNS SF-268, 10 μM, 48 h; read-out: Percent growth inhibition
Protocol: as §1, §2

HOP-92 = details: Homo sapiens; Non-Small Cell Lung HOP-92, 10 μM, 48 h; read-out: Percent growth inhibition
Protocol: as §1, §2

MDA-MB-435 = details: Homo sapiens; Melanoma MDA-MB-435, 10 μM, 48 h; read-out: Percent growth inhibition
Protocol: as §1, §2

CCRF-CEM = details: Homo sapiens, Leukemia CCRF-CEM, 48 h, read-out: Percent growth inhibition
Protocol: as §1, §2

NCI-H226 = details: Homo sapiens, NCI-H226, 48 h, Non-Small Cell Lung NCI-H226, 10 μM, read-out: Percent growth inhibition
Protocol: as §1, §2

MCF7 = details: Homo sapiens; Breast MCF7, 10 μM, 48 h; read-out: Percent growth inhibition
Protocol: as §1, §2

SF-295 = details: Homo sapiens; CNS SF-295, 10 μM, 48 h; read-out: Percent growth inhibition
Protocol: as §1, §2

MDA-MB-468 = details: Homo sapiens; Breast MDA-MB-468, 10 μM, 48 h; read-out: Percent growth inhibition
Protocol: as §1, §2

SNB-75 = details: Homo sapiens; CNS SNB-75, 10 μM, 48 h; read-out: Percent growth inhibition
Protocol: as §1, §2

KM12 = details: Homo sapiens; Colon KM12, 10 μM, 48 h; read-out: Percent growth inhibition
Protocol: as §1, §2

SK-OV-3 = details: Homo sapiens, SK-OV-3, 48 h, Ovarian SK-OV-3, 10 μM, read-out: Percent growth inhibition
Protocol: as §1, §2

OVCAR-3 = details: Homo sapiens; Ovarian OVCAR-3, 10 μM, 48 h; read-out: Percent growth inhibition
Protocol: as §1, §2

DU-145 = details: Homo sapiens; Prostate DU-145, 10 μM, 48 h; read-out: Percent growth inhibition
Protocol: as §1, §2

PC-3 = details: Homo sapiens; Prostate PC-3, 10 μM, 48 h; read-out: Percent growth inhibition
Protocol: as §1, §2

Row | SMILES | inhibition at 10 µM (NCI-H322M) [%] | inhibition at 10 µM (K-562) [%] | inhibition at 10 µM (OVCAR-4) [%] | inhibition at 10 µM (UACC-257) [%] | inhibition at 10 µM (HCC-2998) [%] | inhibition at 10 µM (CAKI-1) [%] | inhibition at 10 µM (A549) [%] | inhibition at 10 µM (HCT-116) [%] | inhibition at 10 µM (NCI-H460) [%] | inhibition at 10 µM (BT-549) [%] | inhibition at 10 µM (ACHN) [%] | inhibition at 10 µM (RPMI-8226) [%] | inhibition at 10 µM (NCI-H522) [%] | inhibition at 10 µM (TK-10) [%] | inhibition at 10 µM (SF-268) [%] | inhibition at 10 µM (HOP-92) [%] | inhibition at 10 µM (MDA-MB-435) [%] | inhibition at 10 µM (CCRF-CEM) [%] | inhibition at 10 µM (NCI-H226) [%] | inhibition at 10 µM (MCF7) [%] | other results
1 | CCOc1ccc(-n2nnc3cnc(Nc4cnn(CC)c4)nc32)cc1 [Compound 2, 3-(4-Ethoxyphenyl)-N-(1-ethyl-1H-pyrazol-4-yl)-3H-[1,2,3]triazolo[4,5-d]pyrimidin-5-amine] | -5.07 | 17.2 | -14.7 | 21.3 | -2.67 | 0.05 | 25.2 | 43.7 | 5.14 | 16.2 | 17.8 | 17 | 31.8 | 1.47 | 12.7 | -5.76 | 20 | 14 | 46.3 | 24.2 | inhibition at 10 µM (SF-295): 3.75%; inhibition at 10 µM (MDA-MB-468): 9.91%; inhibition at 10 µM (SNB-75): 44.6%; inhibition at 10 µM (KM12): 25.9%; inhibition at 10 µM (SK-OV-3): 46.3%; inhibition at 10 µM (OVCAR-3): 6.71%; inhibition at 10 µM (DU-145): 2.46%; inhibition at 10 µM (PC-3): 23.4%
2 | CCn1cc(Nc2ncc3nnn(-c4ccc(C(=O)OC)cc4)c3n2)cn1 [Compound 1, Methyl 4-(5-((1-ethyl-1H-pyrazol-4-yl)amino)-3H-[1,2,3]triazolo[4,5-d]pyrimidin-3-yl)benzoate] | -3.7 | 20.9 | -12 | 13.6 | -3.6 | 1.59 | 18.6 | 42.7 | 0.26 | 24.2 | 1.27 | 10.8 | 24.3 | 6.48 | 0.6 | -8.76 | 9.99 | 39.5 | 34.6 | 11.6 | inhibition at 10 µM (SF-295): -2.41%; inhibition at 10 µM (MDA-MB-468): 6.13%; inhibition at 10 µM (SNB-75): 23.4%; inhibition at 10 µM (KM12): 7.33%; inhibition at 10 µM (SK-OV-3): 22%; inhibition at 10 µM (OVCAR-3): 8.48%; inhibition at 10 µM (DU-145): -9.96%; inhibition at 10 µM (PC-3): 16.7%
